SMILES strings stand for the structures.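 Values below derive from 48-hour exposures of cells grown in 96-well plates, with endpoints linearly interpolated between the two concentrations bracketing the appropriate inhibition level. GI50 marks 50% less growth. TGI: total growth inhibition.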 A value given as a limit tells only on which side of the number the result lay.

Among the test systems are CAKI-1 renal; HT29 colon; K-562 leukemia; KM12 colon; MCF7 breast; NCI-H226 lung; SF-268 CNS; TK-10 renal; U251 CNS; UACC-62 melanoma.
Holding throughout (assay): inhibition of tumour cell growth, NCI panel, 48 h

Turning to `COc1ccc(/C=C\c2cc(OC)c(OC)c(OC)c2)cc1N/C=C\C(=O)c1c[nH]c2ccccc12`, the GI50 in the experiment with CAKI-1 renal was under 0.01 µM; in the experiment with HT29 colon it was under 0.01 µM; with K-562 leukemia, under 0.01 µM; in the experiment with KM12 colon it was under 0.01 µM; in the experiment on MCF7 breast, under 0.01 µM; in the experiment on NCI-H226 lung it was 0.016 µM. For the same molecule, the GI50 with SF-268 CNS is under 0.01 µM; in the experiment on TK-10 renal it was 40.2 µM; in the experiment with U251 CNS, under 0.01 µM; in the experiment on UACC-62 melanoma, 4.38 µM. Also, the TGI in the experiment with CAKI-1 renal is over 100 µM; in the experiment on HT29 colon, over 100 µM; in the experiment on K-562 leukemia, over 100 µM; in the experiment with KM12 colon, 0.0254 µM; with MCF7 breast, over 100 µM; with NCI-H226 lung, over 100 µM. The TGI in the experiment with SF-268 CNS is over 100 µM; in the experiment with TK-10 renal, over 100 µM; in the experiment with U251 CNS, 47.8 µM; with UACC-62 melanoma, 64.2 µM.

In the case of `Cc1cc(O)cc(-c2nn(C)cc2-c2cc(N3CCOCC3)nc(-c3cccnc3)n2)c1`, the GI50 in the experiment on CAKI-1 renal is 3.32 µM; in the experiment with HT29 colon, 3.39 µM; in the experiment on K-562 leukemia, 1.96 µM; in the experiment on KM12 colon, 3.23 µM; in the experiment on MCF7 breast, 1.13 µM; with NCI-H226 lung, 4.83 µM. For the same molecule, the GI50 with SF-268 CNS is 7.29 µM; in the experiment on TK-10 renal, 8.68 µM; in the experiment on U251 CNS it was 4.19 µM; in the experiment on UACC-62 melanoma, 1.9 µM. Besides, the TGI in the experiment with CAKI-1 renal was over 100 µM; with HT29 colon it was 21.9 µM; in the experiment with K-562 leukemia, over 100 µM; in the experiment with KM12 colon it was 20.7 µM; with MCF7 breast, 18.1 µM; in the experiment on NCI-H226 lung, 20.5 µM. Further, the TGI is over 100 µM in the experiment on SF-268 CNS, 95.3 µM in the experiment with TK-10 renal, 18.9 µM in the experiment with U251 CNS and 18.7 µM in the experiment with UACC-62 melanoma.

In the case of `O=C1c2ccccc2-c2c1c1ccc3ccccc3c1n2-c1ccccc1`, the GI50 in the experiment with CAKI-1 renal is 22 µM; in the experiment on HT29 colon, over 100 µM; in the experiment on K-562 leukemia, over 100 µM; in the experiment with KM12 colon it was 21.3 µM; in the experiment on MCF7 breast, 15.6 µM; with NCI-H226 lung, 27.9 µM. Further, the GI50 in the experiment on SF-268 CNS is 20 µM; with TK-10 renal it was 20.6 µM; in the experiment on U251 CNS it was 18.9 µM; in the experiment with UACC-62 melanoma, 20.4 µM. Also, the TGI was 40.9 µM in the experiment on CAKI-1 renal; over 100 µM in the experiment on HT29 colon; over 100 µM in the experiment on K-562 leukemia; over 100 µM with KM12 colon; over 100 µM in the experiment with MCF7 breast; 75.2 µM with NCI-H226 lung. The TGI in the experiment with SF-268 CNS came to 52.3 µM; in the experiment with TK-10 renal, 44.7 µM; in the experiment on U251 CNS, 35.7 µM; in the experiment with UACC-62 melanoma, 44.2 µM.

With `COc1ccccc1N1CCN(CC(O)Cn2c(=O)c3c(OC)nc(C)cc3c(=O)n2-c2ccccc2)CC1` (stereo not given), the GI50 was 32.7 µM in the experiment on CAKI-1 renal; over 100 µM in the experiment on HT29 colon; over 100 µM with K-562 leukemia; over 100 µM with KM12 colon; over 100 µM in the experiment with MCF7 breast; over 100 µM with NCI-H226 lung. Further, the GI50 in the experiment with SF-268 CNS was 62.1 µM; with TK-10 renal, 19.4 µM; in the experiment with U251 CNS, 31.6 µM; in the experiment on UACC-62 melanoma, 64.9 µM. In addition, the TGI with CAKI-1 renal, with HT29 colon, with K-562 leukemia, with KM12 colon, with MCF7 breast and with NCI-H226 lung was over 100 µM throughout. The TGI in the experiment on SF-268 CNS is over 100 µM; in the experiment with TK-10 renal, 81.7 µM; in the experiment on U251 CNS it was over 100 µM; in the experiment with UACC-62 melanoma, over 100 µM.

On to `COC(=O)C1OC(SCCN)C(O)C(O)C1O` (stereo not given), for which the TGI in the experiment on CAKI-1 renal, in the experiment with HT29 colon, in the experiment with K-562 leukemia, with KM12 colon, in the experiment on MCF7 breast and in the experiment on NCI-H226 lung was over 100 µM each time. In addition, the TGI in the experiment on SF-268 CNS, with TK-10 renal, in the experiment on U251 CNS and in the experiment with UACC-62 melanoma was over 100 µM in each case.

Turning to `COc1ccccc1C(=O)Nc1ccc(Cl)c(C(=O)OC(C)C)c1`, the TGI is over 100 µM in the experiment with CAKI-1 renal; 88.2 µM in the experiment on HT29 colon; over 100 µM with K-562 leukemia; over 100 µM with KM12 colon; over 100 µM with MCF7 breast; over 100 µM with NCI-H226 lung. Also, the TGI is over 95.2 µM in the experiment on SF-268 CNS, over 100 µM with TK-10 renal, over 100 µM in the experiment on U251 CNS and over 63.4 µM in the experiment on UACC-62 melanoma.

With `Fc1cccc(-c2nc(-c3c[nH]c4ncccc34)cs2)c1`, the GI50 is over 100 µM in the experiment on CAKI-1 renal; over 100 µM in the experiment on HT29 colon; over 100 µM in the experiment on K-562 leukemia; over 100 µM with KM12 colon; 5.27 µM with MCF7 breast; over 100 µM in the experiment on NCI-H226 lung. The GI50 is 38.2 µM with SF-268 CNS, 25.9 µM in the experiment with TK-10 renal, 25 µM with U251 CNS and over 100 µM with UACC-62 melanoma. Besides, the TGI with CAKI-1 renal, with HT29 colon, in the experiment on K-562 leukemia, in the experiment on KM12 colon, in the experiment on MCF7 breast and with NCI-H226 lung was over 100 µM throughout. Further, the TGI with SF-268 CNS, in the experiment on TK-10 renal, in the experiment on U251 CNS and in the experiment on UACC-62 melanoma was over 100 µM in each case.

In the case of `CN1CCN(c2ccc(NC(=O)c3cncnc3Nc3ccc4c(ccn4Cc4cccc(F)c4)c3)cc2)CC1`, the GI50 with CAKI-1 renal is 3.6 µM; in the experiment on HT29 colon it was 0.922 µM; in the experiment on K-562 leukemia, 0.55 µM; in the experiment on KM12 colon, 2.33 µM; in the experiment with MCF7 breast, 1.15 µM; in the experiment with NCI-H226 lung, 4.86 µM. The GI50 in the experiment with SF-268 CNS was 4.3 µM; with TK-10 renal it was 5.87 µM; with U251 CNS, 1.3 µM; in the experiment on UACC-62 melanoma, 4.06 µM. Moreover, the TGI with CAKI-1 renal is 7.75 µM; with HT29 colon it was 2.9 µM; in the experiment with K-562 leukemia it was 1.2 µM; in the experiment with KM12 colon, 6.76 µM; in the experiment on MCF7 breast, 5.02 µM; in the experiment on NCI-H226 lung, 11.6 µM. The TGI in the experiment with SF-268 CNS was determined as 9.17 µM; in the experiment on TK-10 renal, 11.1 µM; with U251 CNS it was 4.92 µM; in the experiment with UACC-62 melanoma, 8.25 µM.

For the molecule `COc1ccc(C(=O)c2cc(C)c(OC)c(C)c2)c(OC)c1OC(=O)C(Cl)Cl`, the GI50 in the experiment on CAKI-1 renal is 0.338 µM; in the experiment on HT29 colon, 3.44 µM; with K-562 leukemia, 0.0336 µM; in the experiment on KM12 colon it was 0.0362 µM; in the experiment with MCF7 breast, 0.2 µM; in the experiment with NCI-H226 lung, 2.41 µM. Moreover, the GI50 in the experiment on SF-268 CNS is 0.198 µM; with TK-10 renal, 17.2 µM; in the experiment with U251 CNS, 0.0468 µM; in the experiment with UACC-62 melanoma, 0.657 µM. In addition, the TGI in the experiment with CAKI-1 renal is over 100 µM; in the experiment on HT29 colon it was over 49.8 µM; with K-562 leukemia, over 100 µM; in the experiment with KM12 colon, over 100 µM; in the experiment on MCF7 breast it was over 100 µM; in the experiment with NCI-H226 lung, 7.03 µM. In addition, the TGI with SF-268 CNS, in the experiment on TK-10 renal, in the experiment with U251 CNS and in the experiment on UACC-62 melanoma was over 100 µM throughout.

In the case of `CC(=O)OCCC/C(=C/c1cc2ccccc2c2ccccc12)[N+](=O)[O-]`, the GI50 in the experiment on CAKI-1 renal was 1.21 µM; with HT29 colon, 1.97 µM; in the experiment on K-562 leukemia, 1.7 µM; with KM12 colon, 1.56 µM; with MCF7 breast, 0.545 µM; in the experiment on NCI-H226 lung it was 2.04 µM. The GI50 in the experiment on SF-268 CNS is 1.47 µM; in the experiment on TK-10 renal, 1.69 µM; in the experiment with U251 CNS, 1.43 µM; in the experiment on UACC-62 melanoma, 1.54 µM. The TGI in the experiment on CAKI-1 renal is 2.51 µM; with HT29 colon, 3.72 µM; in the experiment with K-562 leukemia, 6.87 µM; with KM12 colon, 2.89 µM; in the experiment with MCF7 breast, 1.95 µM; in the experiment with NCI-H226 lung, 5.63 µM. For the same molecule, the TGI with SF-268 CNS was 2.89 µM; in the experiment on TK-10 renal it was 3.14 µM; with U251 CNS, 2.74 µM; with UACC-62 melanoma, 3.1 µM.

As for `NC(=O)/C=C/c1c[nH]c2nccnc12`, the TGI was over 100 µM in the experiment on CAKI-1 renal; over 25.2 µM in the experiment with HT29 colon; over 18 µM with K-562 leukemia; over 46.3 µM in the experiment with KM12 colon; over 100 µM in the experiment with MCF7 breast; 5.72 µM with NCI-H226 lung. The TGI in the experiment with SF-268 CNS is over 21.9 µM; in the experiment on TK-10 renal, 6.26 µM; with U251 CNS, over 100 µM; in the experiment on UACC-62 melanoma, 8.85 µM.

Turning to `COc1ncc(-c2ccc3ncnc(Nc4cccc(Cl)c4)c3c2)cc1NS(C)(=O)=O`, the GI50 was 0.457 µM with CAKI-1 renal; 1.07 µM in the experiment on HT29 colon; 4.51 µM with K-562 leukemia; 3.55 µM in the experiment with KM12 colon; 0.404 µM in the experiment on MCF7 breast; 4.83 µM in the experiment on NCI-H226 lung. The GI50 in the experiment on SF-268 CNS is 1.99 µM; in the experiment with TK-10 renal, 0.183 µM; in the experiment on U251 CNS, 4.11 µM; in the experiment on UACC-62 melanoma it was 1.79 µM. Besides, the TGI is 10.8 µM in the experiment on CAKI-1 renal; 13.1 µM with HT29 colon; 85.3 µM in the experiment on K-562 leukemia; 16.1 µM with KM12 colon; 11.1 µM with MCF7 breast; 24.2 µM in the experiment with NCI-H226 lung. Further, the TGI with SF-268 CNS amounted to 19.2 µM; in the experiment with TK-10 renal it was 1.4 µM; with U251 CNS, 31.6 µM; with UACC-62 melanoma, 12.2 µM.

As to `C=C(C)C1Cc2cc(C(C)=O)ccc2O1` (stereo not given), the TGI with CAKI-1 renal, in the experiment with HT29 colon, with K-562 leukemia, in the experiment with KM12 colon, with MCF7 breast and in the experiment on NCI-H226 lung was over 100 µM throughout. Also, the TGI with SF-268 CNS, in the experiment with TK-10 renal, with U251 CNS and with UACC-62 melanoma was over 100 µM throughout.

The record behind these values is PubChem BioAssay (NCI).
